Here are results for 25 molecules from PubChem BioAssay AID256 (DTP/NCI, 2004).

The subject of the experiment is CD2F1 mice, L1210 leukemia ip, survival T/C. As to the kind of experiment: NCI In Vivo Anticancer Drug Screen. Data for tumor model L1210 Leukemia (intraperitoneal) in CD2F1 (CDF1) mice. The conditions noted are these: higher = longer survival. Summed up: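 Implant tumor; dose compound or vehicle; measure endpoint in both groups; report treated divided by control.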

Setting [1] is: endpoint: mean survival time, dose: 12.5 mg/kg/injection, schedule: Q04DX002 (ip), vehicle: saline with Tween-80.
[2] abbreviates: endpoint: mean survival time, dose: 50.0 mg/kg/injection, schedule: Q04DX002 (ip), vehicle: saline with Tween-80.
Where [3] appears, read: endpoint: mean survival time, dose: 100.0 mg/kg/injection, schedule: Q01DX001 (ip), vehicle: saline with Tween-80.
The mark [4] stands for this setting: endpoint: mean survival time, dose: 200.0 mg/kg/injection, schedule: Q01DX001 (ip), vehicle: saline with Tween-80.
Setting [5] is: endpoint: mean survival time, dose: 400.0 mg/kg/injection, schedule: Q01DX001 (ip), vehicle: saline with Tween-80.
The mark [6] stands for this setting: endpoint: mean survival time, dose: 100.0 mg/kg/injection, schedule: Q04DX003 (ip), vehicle: saline with Tween-80.
[7] abbreviates: endpoint: mean survival time, dose: 200.0 mg/kg/injection, schedule: Q04DX003 (ip), vehicle: saline with Tween-80.
Setting [8] is: endpoint: mean survival time, dose: 400.0 mg/kg/injection, schedule: Q04DX003 (ip), vehicle: saline with Tween-80.
[9] abbreviates: endpoint: mean survival time, dose: 100.0 mg/kg/injection, schedule: Q04DX002 (ip), vehicle: saline with Tween-80.
Where [10] appears, read: endpoint: mean survival time, dose: 100.0 mg/kg/injection, schedule: Q01DX009 (ip), vehicle: saline with Tween-80.
Setting [11] is: endpoint: mean survival time, dose: 12.5 mg/kg/injection, schedule: Q01DX009 (ip), vehicle: saline with Tween-80.
Setting [12] is: endpoint: mean survival time, dose: 25.0 mg/kg/injection, schedule: Q01DX009 (ip), vehicle: saline with Tween-80.
[13] abbreviates: endpoint: mean survival time, dose: 50.0 mg/kg/injection, schedule: Q01DX009 (ip), vehicle: saline with Tween-80.

Values joined by “and” are separate entries in the source; they are usually repeats but may differ in a detail not shown here. Equal entries are not always repeated. Toxic doses and inconclusive results are not listed.

Consider `Cc1ccc(C23CC4CC(CC(C4)C2)C3)cc1`, for which the T/C is 101 % of control under setting [1]; 93 % of control (endpoint: mean survival time, dose: 25.0 mg/kg/injection, schedule: Q04DX002 (ip), vehicle: saline with Tween-80); 96 % of control under setting [2].
On to `Cc1cc2c(C(C)C)c(O)c(O)c(C=NCCO)c2c(O)c1-c1c(C)cc2c(C(C)C)c(O)c(O)c(C=NCCO)c2c1O`, for which the T/C was 105 % of control (endpoint: median survival time, dose: 25.0 mg/kg/injection, schedule: Q01DX009 (ip), vehicle: saline with Tween-80); 97 % of control (endpoint: median survival time, dose: 50.0 mg/kg/injection, schedule: Q01DX009 (ip), vehicle: saline with Tween-80); 101 % of control (endpoint: median survival time, dose: 100.0 mg/kg/injection, schedule: Q01DX009 (ip), vehicle: saline with Tween-80); 104 % of control (endpoint: median survival time, dose: 200.0 mg/kg/injection, schedule: Q01DX009 (ip), vehicle: saline with Tween-80); 89 % of control (endpoint: median survival time, dose: 400.0 mg/kg/injection, schedule: Q01DX009 (ip), vehicle: saline with Tween-80).
Regarding `CC(=O)NCC(O)C(O)C(O)C(O)COC(=O)c1ccccc1` (stereo not given), the T/C is, setting by setting: under setting [3], 95 % of control; under setting [4], 95 % of control; under setting [5], 96 % of control.
Regarding `CS(=O)(=O)OCCNC(=O)N(CCCl)N=O`, the T/C was 95 % of control (endpoint: mean survival time, dose: 0.39 mg/kg/injection, schedule: Q01DX009 (ip), vehicle: water); 108 % of control (endpoint: mean survival time, dose: 0.78 mg/kg/injection, schedule: Q01DX009 (ip), vehicle: water); 193 % of control (endpoint: mean survival time, dose: 3.13 mg/kg/injection, schedule: Q01DX009 (ip), vehicle: water); 120 % of control (endpoint: mean survival time, dose: 5.0 mg/kg/injection, schedule: Q01DX001 (ip), vehicle: distilled water + Tween-80); 356 % of control (endpoint: mean survival time, dose: 6.25 mg/kg/injection, schedule: Q01DX009 (ip), vehicle: water); 216 % of control and 342 % of control (endpoint: mean survival time, dose: 20.0 mg/kg/injection, schedule: Q01DX001 (ip), vehicle: distilled water + Tween-80). Further, under “endpoint: mean survival time, dose: 40.0 mg/kg/injection, schedule: Q01DX001 (ip), vehicle: distilled water + Tween-80”, the T/C was 311 % of control and 500 % of control.
`CCCCCCCCC(C(O)c1ccccc1)C(O)(C(F)(F)F)C(F)(F)F` (stereo not given): the T/C is 98 % of control under setting [6], 102 % of control under setting [7] and 104 % of control under setting [8].
For the molecule `CC1(C)SC(C(NC(=O)COc2ccccc2)C(=O)O)NC1C(=O)O` (stereo not given), the T/C by setting is: under setting [6], 97 % of control; under setting [7], 97 % of control.
`Cn1c(C(O)c2cccnc2)c(CN2CCCCC2)c2ccccc21` (stereo not given): the T/C under setting [3] was 97 % of control and the T/C under setting [4] was 94 % of control.
`CCC(N)Cc1ccc2c(c1)OCO2` (stereo not given): the T/C by setting is: (endpoint: mean survival time, dose: 25.0 mg/kg/injection, schedule: Q01DX009 (ip), vehicle: saline) 98 % of control; (endpoint: mean survival time, dose: 50.0 mg/kg/injection, schedule: Q01DX009 (ip), vehicle: saline) 93 % of control; (endpoint: mean survival time, dose: 100.0 mg/kg/injection, schedule: Q01DX009 (ip), vehicle: saline) 96 % of control; under setting [6], 95 % of control.
Consider `CC1CC(C)(C)N=C(CCCCCCl)O1` (stereo not given), for which the T/C under setting [2] was 101 % of control; the T/C under setting [3] was 103 % of control; the T/C under setting [9] was 108 % of control; the T/C under setting [4] is 105 % of control; the T/C (endpoint: mean survival time, dose: 200.0 mg/kg/injection, schedule: Q04DX002 (ip), vehicle: saline with Tween-80) was 112 % of control.
Turning to `CCOC(=O)NOP(=O)(N1CC1)N1CC1`, the T/C was 116 % of control under setting [1], 166 % of control under setting [2] and 186 % of control under setting [9].
Consider `O=C(O)C(O)C(=O)O.[NH-]C1CCCCC1[NH-].[Pt+2]`, for which the T/C runs as follows: (endpoint: mean survival time, dose: 1.18 mg/kg/injection, schedule: Q04DX003 (ip), vehicle: saline with Tween-80) 109 % of control; (endpoint: mean survival time, dose: 2.35 mg/kg/injection, schedule: Q04DX003 (ip), vehicle: saline with Tween-80) 120 % of control; (endpoint: mean survival time, dose: 4.7 mg/kg/injection, schedule: Q04DX003 (ip), vehicle: saline with Tween-80) 124 % of control.
Turning to `CCNC(=O)C(C)Br` (stereo not given), the T/C by setting is: (endpoint: mean survival time, dose: 100.0 mg/kg/injection, schedule: Q01DX001 (ip), vehicle: saline) 97 % of control; (endpoint: mean survival time, dose: 200.0 mg/kg/injection, schedule: Q01DX001 (ip), vehicle: saline) 106 % of control.
`O=C(Nc1ccc(NC(=O)c2ccccc2)c2ccccc12)c1ccccc1`: the T/C is, setting by setting: under setting [6], 92 % of control; under setting [8], 92 % of control.
For the molecule `O=[N+]([O-])O.[NH-]C1CCCCC1[NH-].[NH-]C1CCCCC1[NH-].[OH-].[OH-].[Pt+4].[Pt+4]` (stereo not given), for the setting “endpoint: mean survival time, dose: 1.25 mg/kg/injection, schedule: Q04DX003 (ip), vehicle: water”, the T/C is 110 % of control.
As for `CC1=C(c2ccccc2)C(c2ccccc2)c2ccccc21` (stereo not given), the T/C by setting is: under setting [3], 94 % of control; under setting [4], 93 % of control; under setting [5], 92 % of control.
Take `C=CCNC(=O)/C(=C\c1ccccc1)NC(C)=O`: the T/C under setting [10] was 96 % of control; the T/C under setting [6] is 98 % of control; the T/C (endpoint: mean survival time, dose: 200.0 mg/kg/injection, schedule: Q01DX009 (ip), vehicle: saline with Tween-80) was 98 % of control; the T/C under setting [7] is 100 % of control; the T/C (endpoint: mean survival time, dose: 400.0 mg/kg/injection, schedule: Q01DX009 (ip), vehicle: saline with Tween-80) is 95 % of control; the T/C under setting [8] is 100 % of control.
Consider `CC(S(N)(=O)=O)S(N)(=O)=O`, for which the T/C is, setting by setting: under setting [3], 105 % of control; under setting [4], 102 % of control; under setting [5], 94 % of control.
In the case of `O=C1c2cccc3cccc(c23)C(=O)N1Cc1ccccc1`, the T/C under setting [6] was 98 % of control, the T/C under setting [7] is 87 % of control and the T/C under setting [8] was 91 % of control.
`CC1CCCNC1` (stereo not given): the T/C was 97 % of control under setting [6] and 93 % of control under setting [8].
With `CCOC(=O)Nc1ccc(C(=O)O)c(O)c1`, the T/C under setting [6] was 96 % of control, the T/C under setting [7] is 96 % of control and the T/C under setting [8] is 100 % of control.
In the case of `CCc1cc2c(cc1C(=O)/C=C\c1cccc3ccccc13)C(C)(C)CCC2(C)C`, the T/C (endpoint: mean survival time, dose: 6.25 mg/kg/injection, schedule: Q01DX009 (ip), vehicle: saline with Tween-80) is 94 % of control; the T/C under setting [11] was 86 % of control; the T/C under setting [12] is 93 % of control.
On to `O=c1[nH]c(=O)c2ccccc2o1`, for which the T/C reads like this: under setting [11], 101 % of control; under setting [12], 101 % of control; under setting [13], 98 % of control.
Regarding `CCOC(=O)c1ccc(Nc2nnc(-c3ccc(OC)cc3OC)s2)cc1`, the T/C by setting is: under setting [12], 94 % of control; under setting [13], 88 % of control; under setting [10], 88 % of control and 91 % of control.
For `CCC(=O)c1cc([N+](=O)[O-])ccc1NC(C)=O`, the T/C runs as follows: under setting [6], 100 % of control; under setting [7], 94 % of control; under setting [8], 88 % of control.
On to `O=C1/C(=C/c2ccc(Cl)c(Cl)c2)CCC/C1=C\c1ccc(Cl)c(Cl)c1`, for which the T/C was 98 % of control (endpoint: mean survival time, dose: 100.0 mg/kg/injection, schedule: Q04DX003 (ip), vehicle: Klucel (hydroxypropylcellulose) (HPC)); 100 % of control (endpoint: mean survival time, dose: 200.0 mg/kg/injection, schedule: Q04DX003 (ip), vehicle: Klucel (hydroxypropylcellulose) (HPC)); 98 % of control (endpoint: mean survival time, dose: 400.0 mg/kg/injection, schedule: Q04DX003 (ip), vehicle: Klucel (hydroxypropylcellulose) (HPC)).
